Data taken from PMC6199744, “Development of Chemical Proteomics for the Folateome and Analysis of the Kinetoplastid Folateome” (ACS Infectious Diseases, 2018).
Like-named read-outs stand apart in the source and are kept apart here.

Test system: T. brucei lysate proteins
Assay type: binding, Trypanosoma brucei
Conditions: for abundance relative to vehicle: X016405, bead mixture, free compound 100.0uM, Trypanosoma brucei

Nc1nc2cccc(-c3ccccc3)c2n1Cc1ccc(Cl)c(Cl)c1 [compound 3]
abundance relative to vehicle (protein TB427.02.1850): 0.84
abundance relative to vehicle (protein TB427.06.4760): 0.94
abundance relative to vehicle (protein TB427.07.3620): 0.78
abundance relative to vehicle (protein TB427.08.1880): 1.20
fold change - vehicle control (protein RHS6A (CZT00028360.1)): 0.89
fold change - vehicle control (protein TB09.160.1250 HY[…], CONSERVED): 0.88
fold change - vehicle control (protein TB09.160.3670 RIBOSOMAL PROTEIN S6, PUTATIVE): 0.98
fold change - vehicle control (protein TB09.211.2630 60S RIBOSOMAL PROTEIN L23, PUTATIVE): 0.92
fold change - vehicle control (protein TB09.211.4513 KIN[…] PROTEIN KMP-11): 1.1
fold change - vehicle control (protein TB11.V4.0005 RIBONUCLEOSIDE-DIPHOSPHATE REDUCTASE SMALL CHAIN): 0.81
fold change - vehicle control (protein TB11.01.0870 R[…] A, 51KDA SUBUNIT, PUTATIVE): 1.11
fold change - vehicle control (protein TB11.01.2560 40S RIBOSOMAL PROTEIN SA, PUTATIVE): 0.92
fold change - vehicle control (protein TB11.01.4880 HY[…], CONSERVED): 0.9
fold change - vehicle control (protein TB11.01.7090 HY[…], CONSERVED): 0.87
fold change - vehicle control (protein TB11.02.2510 GUANINE NUCLEOTIDE-BINDING BETA SUBUNIT-LIKE PROTEIN): 0.96
fold change - vehicle control (protein TB11.02.4170 40S RIBOSOMAL PROTEIN S5, PUTATIVE): 0.92
fold change - vehicle control (protein TB11.03.0250 C[…]): 1.22
fold change - vehicle control (protein TB11.46.0009 HY[…], CONSERVED): 0.89
fold change - vehicle control (protein TB427TMP.01.0620 HY[…], CONSERVED): 0.76
fold change - vehicle control (protein TB427TMP.01.1475 40S RIBOSOMAL PROTEIN S27, PUTATIVE): 1.02
fold change - vehicle control (protein TB427TMP.01.4280 HY[…], CONSERVED): 0.82
fold change - vehicle control (protein TB427TMP.01.4650 HY[…], CONSERVED): 0.97
fold change - vehicle control (protein TB427TMP.01.4810 HY[…], CONSERVED): 0.99
fold change - vehicle control (protein TB427TMP.01.5680 HY[…], CONSERVED): 0.54
fold change - vehicle control (protein TB427TMP.01.8390 HY[…], CONSERVED): 0.84
fold change - vehicle control (protein TB427TMP.02.0230 HY[…], CONSERVED): 1.04
fold change - vehicle control (protein TB427TMP.02.0460 NUCLEOPORIN): 0.82
fold change - vehicle control (protein TB427TMP.02.1106 NUCLEOBASE/NUCLEOSIDE TRANSPORTER 8 1): 1.05
fold change - vehicle control (protein TB427TMP.160.2050 ENDO-BETA-N-ACETYLGLUCOSAMINIDASE, PUTATIVE): 0.92
fold change - vehicle control (protein TB427TMP.160.4310 GLUTAMATE DEHYDROGENASE): 0.97
fold change - vehicle control (protein TB427TMP.160.4450 40S RIBOSOMAL PROTEIN S3, PUTATIVE): 0.97
fold change - vehicle control (protein TB427TMP.160.4630 HY[…], CONSERVED): 0.86
fold change - vehicle control (protein TB427TMP.160.5200 HY[…], CONSERVED): 0.69
fold change - vehicle control (protein TB427TMP.160.5670 HY[…], CONSERVED): 0.83
fold change - vehicle control (protein TB427TMP.211.0930 POLYADENYLATE-BINDING PROTEIN 1): 0.97
fold change - vehicle control (protein TB427TMP.211.1750 MIT[…] PROTEIN, PUTATIVE): 0.88
fold change - vehicle control (protein TB427TMP.211.3510 ATP-DEPENDENT DEAD/H RNA HELICASE, PUTATIVE): 1.06
fold change - vehicle control (protein TB427TMP.211.4540 RNA-BINDING PROTEIN, PUTATIVE): 1.05
fold change - vehicle control (protein TB427TMP.244.2840 HY[…], CONSERVED): 0.92
fold change - vehicle control (protein TB427.01.1240 CYTIDINE TR[…], PUTATIVE): 0.84
fold change - vehicle control (protein TB427.01.2570 COATOMER BETA SUBUNIT): 0.73
fold change - vehicle control (protein TB427.01.3910 HY[…], CONSERVED): 0.78
fold change - vehicle control (protein TB427.02.450 RETRO[…] SPOT (RHS) PROTEIN, PUTATIVE): 0.81
fold change - vehicle control (protein TB427.02.6240): 1.08
fold change - vehicle control (protein TB427.04.3350 HY[…], CONSERVED): 0.72
fold change - vehicle control (protein TB427.04.3890 ATP-DEPENDENT RNA HELICASE, PUTATIVE): 0.92
fold change - vehicle control (protein TB427.04.4870 AMINO ACID TRANSPORTER, PUTATIVE): 0.87
fold change - vehicle control (protein TB427.04.750 50S RIBOSOMAL PROTEIN L7AE, PUTATIVE): 1.12
fold change - vehicle control (protein TB427.04.960 HY[…], CONSERVED): 0.88
fold change - vehicle control (protein TB427.05.1490 HY[…], CONSERVED): 0.8
fold change - vehicle control (protein TB427.05.1780 HY[…], CONSERVED): 0.77
fold change - vehicle control (protein TB427.05.3030 INTR[…] PROTEIN IFT122, PUTATIVE): 0.89
fold change - vehicle control (protein TB427.05.4560 GUANINE DEAMINASE, PUTATIVE): 0.7
fold change - vehicle control (protein TB427.06.2150 CELL DIVISION CYCLE PROTEIN 16, PUTATIVE): 0.83
fold change - vehicle control (protein TB427.06.3110 PROTEIN KINASE, PUTATIVE (CRK11)): 0.87
fold change - vehicle control (protein TB427.06.5110 DAMAGE-SPECIFIC DNA BINDING PROTEIN, PUTATIVE): 0.98
fold change - vehicle control (protein TB427.07.2670 HY[…], CONSERVED): 3.19
fold change - vehicle control (protein TB427.07.3040 HY[…], CONSERVED): 0.98
fold change - vehicle control (protein TB427.07.3530 HY[…], CONSERVED): 0.87
fold change - vehicle control (protein TB427.07.4970 GLUTAMINE SYNTHETASE, PUTATIVE): 0.9
fold change - vehicle control (protein TB427.07.5560 GLUCOSAMINE-FRUCTOSE-6-PHOSPHATE AMINOTRANSFERASE, PUTATIVE): 0.84
fold change - vehicle control (protein TB427.07.5890 HY[…], CONSERVED): 0.79
fold change - vehicle control (protein TB427.07.7070 HY[…], CONSERVED): 0.62
fold change - vehicle control (protein TB427.07.7460 HY[…], CONSERVED): 0.91
fold change - vehicle control (protein TB427.08.1500 HY[…], CONSERVED): 0.95
fold change - vehicle control (protein TB427.08.1840 HY[…], CONSERVED): 0.95
fold change - vehicle control (protein TB427.08.1960 HY[…], CONSERVED): 0.78
fold change - vehicle control (protein TB427.08.2080 HY[…], CONSERVED): 1.08
fold change - vehicle control (protein TB427.08.3750 NUCLEOLAR PROTEIN, PUTATIVE): 0.92
fold change - vehicle control (protein TB427.08.6390 LYSOPHOSPHOLIPASE, PUTATIVE): 1.03
fold change - vehicle control (protein TB427.10.10610 PROTEIN TYROSINE PHOSPHATASE, PUTATIVE): 0.69
fold change - vehicle control (protein TB427.10.1100 60S RIBOSOMAL PROTEIN L9, PUTATIVE): 0.86
fold change - vehicle control (protein TB427.10.12740): 0.9
fold change - vehicle control (protein TB427.10.14660 HY[…], CONSERVED): 1.05
fold change - vehicle control (protein TB427.10.15720 […]-ATP-ASE SUBUNIT 9): 0.82
fold change - vehicle control (protein TB427.10.2440 METACASPASE MCA4): 0.84
fold change - vehicle control (protein TB427.10.2900 IMPORTIN BETA-1 SUBUNIT, PUTATIVE): 0.79
fold change - vehicle control (protein TB427.10.3470 HY[…], CONSERVED): 0.74
fold change - vehicle control (protein TB427.10.4110 60S RIBOSOMAL PROTEIN L30): 0.91
fold change - vehicle control (protein TB427.10.4610 […]-MANNOSE SYNTHASE, PUTATIVE): 0.85
fold change - vehicle control (protein TB427.10.5250 HY[…], CONSERVED): 0.82
fold change - vehicle control (protein TB427.10.5840 T[…] 1-BETA, PUTATIVE): 0.65
fold change - vehicle control (protein TB427.10.7410 SUCCINYL-COA LIGASE GDP-FORMING] BETA-CHAIN, PUTATIVE): 0.85
fold change - vehicle control (protein TB927.10.12960 RAS-RELATED PROTEIN RAB-5): 0.9
fold change - vehicle control (protein TB927.10.14800 PROTEIN KINASE, PUTATIVE): 1.09
fold change - vehicle control (protein TB927.10.2980 […]-ATPASE SUBUNIT 11): 1.07
fold change - vehicle control (protein TB927.10.3660 ASPARTATE AMINOTRANSFERASE): 0.86
fold change - vehicle control (protein TB927.10.4570 […] 2): 0.66
fold change - vehicle control (protein TB927.10.5140 PROTEIN KINASE, PUTATIVE): 1.06
fold change - vehicle control (protein TB927.10.560 40S RIBOSOMAL PROTEINS S11, PUTATIVE): 0.95
fold change - vehicle control (protein TB927.10.6510 CHAPERONIN HSP60, MIT[…]): 0.86
fold change - vehicle control (protein TB927.3.1840 3-OXO-5-ALPHA-STEROID 4-DEHYDROGENASE, PUTATIVE): 0.92
fold change - vehicle control (protein TB927.3.3780 TRYPAREDOXIN): 0.85
fold change - vehicle control (protein TB927.3.740 HY[…], CONSERVED): 0.91
fold change - vehicle control (protein TB927.4.2740 HY[…], CONSERVED): 1.05
fold change - vehicle control (protein TB927.4.3590 T[…] 1-BETA, PUTATIVE): 0.69
fold change - vehicle control (protein TB927.6.4320 HY[…], CONSERVED): 0.75
fold change - vehicle control (protein TB927.7.2550 […] SUBUNIT 5): 0.86
fold change - vehicle control (protein TB927.7.2980 HY[…], CONSERVED): 0.75
